Source: patent US12398121B2 (Nuvation Bio Inc., priority 2018, dated 2025)
Where two headings read alike, the source gives them in different places.

Columns and labels:
22RV1 cells = assay: Cell proliferation assay (CellTiter Glo), 22RV1; assay type: cell-based; conditions: Homo sapiens, 22Rv1, 72 h, read-out: 22RV1 IC50
Method: IC50 values were calculated and graphed using the model “log(inhibitor) vs. response—Variable slope” included in GraphPad Prism 5 (San Diego, CA). The Ki values were further calculated using the equation below where [L] was the radioligand concentration (1 nM) using in this study. Kd value was 0.332 nM. Ki=IC50/(1+[L]/Kd) c. AR transactivation: Human AR cloned into a CMV vector backbone was used for the transactivation study. HEK-293 cells were plated at 80,000 cells per well of a 24 well plate in DME+5% csFBS. Twenty four hours later, the cells were transfected using Lipofectamine (Invitrogen, Carlsbad, CA) with 0.25 μg GRE-LUC, 0.01 μg CMV-LUC (renilla luciferase) and 25 ng of the AR in OPTIMEM medium. The cells were treated 24 hrs after transfection with various ligands (10^−12 to 10^−5 M final concentrations) and luciferase assay were performed 48 hours after transfection. Firefly values were normalized to renilla luciferase values and the values were represented as relative light units (RLU). Agonist and antagonist assays for the test article were performed in the absence and in the combination with 0.1 nM R1881, respectively. Data were represented as EC50 (for agonists) and IC50 (for antagonists) obtained from four parameter logistics curve. Cell culture and proliferation assays: LNCaP, PC-3, 22RV1, MCF-7, HT-29, and HCT-116 cells were procured from American Type Culture Collection (ATCC). Cells were cultured in medium recommended by the ATCC. Cell culture medium was obtained from Fisher scientific (Waltham, MA) and serum was obtained from Hyclone (San Angelo, TX).
Cells were plated at varying density in the respective growth medium in 96 well plates. 24 hr later, cells were treated, in triplicate or quadruplicate, with test articles prepared in a range of concentrations by series dilution of DMSO stock solutions in growth medium and incubated for three to seven days. The number of viable 22RV1 and HT-29 cells was measured using CellTiter Glo assay (CTG, Promega, Madison, WI) after three days of treatment. The other types of cancer cells were re-treated at three or four days and the number of viable cells was measured using CTG assay after a total treatment time of six or seven days. Cell viability data were plotted using GraphPad Prism (GraphPad Software, Inc., San Diego, CA). In addition, a nonlinear regression model with a sigmoidal dose response and variable slope within GraphPad Prism was used to calculate the IC50 value of individual test articles. Additional cell proliferation assays: Other cancer cell lines are tested in a cell proliferation assay. For example, SK-OV-3 or OVCAR3 ovarian cancer cells are tested. Cells are cultured in medium recommended by the supplier (e.g., ATCC or JCRB Cell Bank), at 37° C. in a 5% CO2 environment. For the proliferation assay, cells are plated in the growth medium in 96 well plates. Seeding density is adjusted according to the cell type. 24 hr later, cells are treated, in triplicate or quadruplicate, with test articles prepared in a range of concentrations by series dilution of DMSO stock solutions in growth medium, and typically incubated for three to seven days, with test article-containing medium replaced after three or four days. The number of viable cells is measured using CellTiter Glo assay (CTG, Promega, Madison, WI) or similar. Cell viability data are plotted using GraphPad Prism (GraphPad Software, Inc., San Diego, CA). In addition, a nonlinear regression model with a sigmoidal dose response and variable slope within GraphPad Prism is used to calculate the IC50 value of individual test articles. Similarly, HEK-293 and HeLa calls can also be tested by methods known in the art. • f. Nuclear translocation: LNCaP cells are plated on coverslips in 24 well plates in growth medium. Twenty-four hours after plating, medium is changed to RPMI+1% csFBS and the cells are maintained in this medium for two days. Medium is replaced again and the cells are treated. […]

Human recombinant PARP2 = Human recombinant PARP2 (Homo sapiens, UniProt Q9UGN5); assay: RBC HotSpot PARP2 radioisotope-based filter binding assay; assay type: biochemical
Sequence of Human recombinant PARP2 (Q9UGN5 whole entry): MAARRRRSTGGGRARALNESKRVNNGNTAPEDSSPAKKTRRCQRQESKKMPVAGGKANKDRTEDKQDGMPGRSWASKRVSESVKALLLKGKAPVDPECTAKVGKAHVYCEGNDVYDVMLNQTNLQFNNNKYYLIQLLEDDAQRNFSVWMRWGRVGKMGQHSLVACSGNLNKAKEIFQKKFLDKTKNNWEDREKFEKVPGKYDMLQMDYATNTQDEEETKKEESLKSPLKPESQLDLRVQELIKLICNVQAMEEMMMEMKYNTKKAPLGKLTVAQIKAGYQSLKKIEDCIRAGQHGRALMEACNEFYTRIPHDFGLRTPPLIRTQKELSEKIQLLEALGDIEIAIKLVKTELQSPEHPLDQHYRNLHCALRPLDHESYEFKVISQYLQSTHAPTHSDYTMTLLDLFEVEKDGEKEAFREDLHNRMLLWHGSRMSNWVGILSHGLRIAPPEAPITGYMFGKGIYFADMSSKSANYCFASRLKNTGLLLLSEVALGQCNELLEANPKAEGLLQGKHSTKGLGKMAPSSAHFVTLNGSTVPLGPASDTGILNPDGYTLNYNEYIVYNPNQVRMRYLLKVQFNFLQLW
Method: The following methods are for evaluating the in vitro biology properties of the test articles. • a. RBC HotSpot Poly(ADP-ribose) Polymerases 1 (PARP1) and Poly(ADP-ribose) Polymerases 2 (PARP2) Assays: The assay principle is radioisotope-based filter binding assay where incorporation of radioisotope-labeled NAD^+ into the substrate captured on filter is detected after washout free NAD^+. Data were analyzed using Excel and GraphPad Prism software for IC50 curve fits. Each assay was conducted with PJ34 as a positive control. • i. PARP1 assay: Human recombinant PARP1 at a final concentration of 2.5 nM was combined with histone H4 (20 μM) and test articles at various concentrations in reaction buffer (50 mM Tris-HCL, pH 8.0, 50 mM NaCl, 10 mM MgCl2, 1 mM DTT, 1% DMSO, and 20 μg/mL activated DNA). The solution was inoculated for 20 min at room temperature and the reaction initiated by adding [adenylate-^32P]-Nicotinamide Adenine Dinucleotide, ^32P-NAD^+ at a final concentration of 10 μM. After incubation for 2 hour at room temperature, the reaction mixture was filtered and washed with 0.75% phosphoric acid for radioactivity detection. • ii. PARP2 assay: Human recombinant PARP2 at a final concentration of 2.5 nM was combined with histone H3 (20 μM) and test articles at various concentrations in reaction buffer (50 mM Tris-HCL, pH 8.0, 50 mM NaCl, 10 mM MgCl2, 1 mM DTT, 1% DMSO, and 20 μg/mL activated DNA). The solution was inoculated for 20 min at room temperature and the reaction was initiated by adding [adenylate-^32P]-Nicotinamide Adenine Dinucleotide, ^32P-NAD^+ at a final concentration of 10 μM. After incubation for 2 hour at room temperature, the reaction mixture was filtered and washed with 0.75% phosphoric acid for radioactivity detection. • b. AR binding assay: AR in LNCaP cytosol was used for determining the binding affinity of test articles and the reference compound—progesterone (Sigma, Cat: E2785, St. Louis, MO). IC50s were determined using 8 concentrations/compound. Cytosol was plated at 200 μg/well (100 μL) into a 96-well conical polypropylene plate (Agilent, Cat: 5042-1385, Santa Clara, CA) and mixed with 3 μL of test compound. After adding 100 μL of ^3H-methyltrienolone (PerkinElmer, Cat: NET590250UC, San Jose, CA), the plate was sealed and shaken at 300 rpm at 4° C. for 24 hours. Post incubation, 100 μL of radioligand adsorption buffer containing 10 mM Tris-HCl, pH 7.4; 1.5 mM EDTA; 1 mM DTT; 0.25% charcoal; 0.0025% dextran was added to individual well. Plate was shaken for 15 min at 4′C followed by centrifugation at 3000 rpm for 30 min at 4° C. 150 μL of supernatant was transferred into scint-tube (PerkinElmer, Cat: 6000192) and mixed with 2 mL of Ultima Gold Cocktail (PerkinElmer, Cat: 6013329). Radioactivity was counted using a TriCarb 2910 TR scintillation counter (PerkinElmer). Inhibition of the radioactivity by test articles were calculated using the equation below: % Inhibition=(1−(Assay well−Average_LC)/(Average_HC−Average_LC))×100%.

[1] = 2.5 nM enzyme, histone H3, 10 μM 32P-NAD+, read-out: PARP2 IC50

With CC(O)(CS(=O)(=O)c1ccc(NCCn2cc(CN3CCN(C(=O)c4cc(Cc5n[nH]c(=O)c6ccccc56)ccc4F)CC3)nn2)cc1)C(=O)Nc1ccc(C#N)c(C(F)(F)F)c1 (stereo in doubt) [Compound 1.97, (S)-N-(4-cyano-3-(trifluoromethyl)phenyl)-3-(4-(2-(4-((4-(2-fluoro-5-((4-oxo-3,4-dihydrophthalazin-1-yl)methyl)benzoyl)piperazin-1-yl)methyl)-1H-1,2,3-triazol-1-yl)ethylamino)phenylsulfonyl)-2-hydroxy-2-methylpropanamide] the IC50 (22RV1 cells) was greater than 30000 nM and the IC50 (Human recombinant PARP2) was 0.4 nM.

C[C@]12CCC(=O)C[C@@H]1CC[C@@H]1[C@@H]2CC[C@@]2(C)[C@H]1CC[C@@]2(O)CCC(=O)N1CCN(C(=O)c2cc(Cc3n[nH]c(=O)c4ccccc34)ccc2F)CC1 (stereo in doubt) [Compound 1.117, 4-(4-fluoro-3-(4-(3-((5S,8R,9S,10S,13S,14S,17R)-17-hydroxy-10,13-dimethyl-3-oxohexadecahydro-1H-cyclopenta[a]phenanthren-17-yl)propanoyl)piperazine-1-carbonyl)benzyl)phthalazin-1(2H)-one] was tested, and the IC50 (22RV1 cells; cell growth inhibition, three days of treatment) was 440 nM and the IC50 (Human recombinant PARP2; [1]) was 0.1 nM.

In the case of CC1(C)C(=O)N(c2ccc(C#N)c(C(F)(F)F)c2)C(=S)N1c1ccc(C(=O)NCCCCCC(=O)N2CCN(C(=O)c3cc(Cc4n[nH]c(=O)c5ccccc45)ccc3F)CC2)c(F)c1 [Compound 1.1, 4-(3-(4-cyano-3-(trifluoromethyl)phenyl)-5,5-dimethyl-4-oxo-2-thioxoimidazolidin-1-yl)-2-fluoro-N-(6-(4-(2-fluoro-5-((4-oxo-3,4-dihydrophthalazin-1-yl)methyl)benzoyl)piperazin-1-yl)-6-oxohexyl)benzamide], the IC50 (Human recombinant PARP2) is reported as 0.2 nM.

With C[C@]12CCC(=O)C[C@@H]1CC[C@@H]1[C@@H]2CC[C@]2(C)[C@@H](OCCCCCC(=O)N3CCN(C(=O)c4cc(Cc5n[nH]c(=O)c6ccccc56)ccc4F)CC3)CC[C@@H]12 [Compound 1.2, 4-(3-(4-(6-(((5S,8R,9S,10S,13S,14S,17S)-10,13-dimethyl-3-oxohexadecahydro-1H-cyclopenta[a]phenanthren-17-yl)oxy)hexanoyl)piperazine-1-carbonyl)-4-fluorobenzyl)phthalazin-1(2H)-one] the IC50 (22RV1 cells) was 400 nM and the IC50 (Human recombinant PARP2; [1]) was 0.2 nM.

CC1(C)C(=O)N(c2ccc(C#N)c(C(F)(F)F)c2)C(=S)N1c1ccc(C(=O)NCCCCCCNCc2ccc(-c3[nH]c4cc(F)cc5c4c3CCNC5=O)cc2)c(F)c1 [Compound 1.5, 4-(3-(4-cyano-3-(trifluoromethyl)phenyl)-5,5-dimethyl-4-oxo-2-thioxoimidazolidin-1-yl)-2-fluoro-N-(6-((4-(8-fluoro-1-oxo-2,3,4,6-tetrahydro-1H-azepino[5,4,3-cd]indol-5-yl)benzyl)amino)hexyl)benzamide] gave an IC50 (22RV1 cells) of 4500 nM and an IC50 (Human recombinant PARP2) of 2 nM.

Work on C[C@](O)(CS(=O)(=O)c1ccc(NCCCCCC(=O)N2CCN(C(=O)c3cc(Cc4n[nH]c(=O)c5ccccc45)ccc3F)CC2)cc1)C(=O)Nc1ccc(C#N)c(C(F)(F)F)c1 [Compound 1.68, (R)-N-(4-cyano-3-(trifluoromethyl)phenyl)-3-(4-(6-(4-(2-fluoro-5-((4-oxo-3,4-dihydrophthalazin-1-yl)methyl)benzoyl)piperazin-1-yl)-6-oxohexylamino)phenylsulfonyl)-2-hydroxy-2-methylpropanamide] yielded an IC50 (22RV1 cells) of 4700 nM and an IC50 (Human recombinant PARP2) of 0.2 nM.

Work on C[C@](O)(COc1ccc(NCCCCCC(=O)N2CCN(C(=O)c3cc(Cc4n[nH]c(=O)c5ccccc45)ccc3F)CC2)cc1)C(=O)Nc1ccc(C#N)c(C(F)(F)F)c1 [Compound 1.83, (S)-N-(4-cyano-3-(trifluoromethyl)phenyl)-3-(4-(6-(4-(2-fluoro-5-((4-oxo-3,4-dihydrophthalazin-1-yl)methyl)benzoyl)piperazin-1-yl)-6-oxohexylamino)phenoxy)-2-hydroxy-2-methylpropanamide] yielded an IC50 (22RV1 cells) greater than 30000 nM and an IC50 (Human recombinant PARP2; [1]) of 0.3 nM.

For C[C@](O)(CS(=O)(=O)c1ccc(NCC(=O)N2CCN(C(=O)c3cc(Cc4n[nH]c(=O)c5ccccc45)ccc3F)CC2)cc1)C(=O)Nc1ccc(C#N)c(C(F)(F)F)c1 [Compound 1.98, (R)-N-(4-cyano-3-(trifluoromethyl)phenyl)-3-(4-(2-(4-(2-fluoro-5-((4-oxo-3,4-dihydrophthalazin-1-yl)methyl)benzoyl)piperazin-1-yl)-2-oxoethylamino)phenylsulfonyl)-2-hydroxy-2-methylpropanamide], the IC50 (22RV1 cells) was 3500 nM and the IC50 (Human recombinant PARP2) was 0.1 nM.

CN(CCCCCC(=O)N1CCN(C(=O)c2cc(Cc3n[nH]c(=O)c4ccccc34)ccc2F)CC1)CCOc1ccc(C(=O)c2c(-c3ccc(O)cc3)sc3cc(O)ccc23)cc1 [Compound 2.4, 4-(4-fluoro-3-(4-(6-((2-(4-(6-hydroxy-2-(4-hydroxyphenyl)benzo[b]thiophene-3-carbonyl)phenoxy)ethyl)(methyl)amino)hexanoyl)piperazine-1-carbonyl)benzyl)phthalazin-1(2H)-one] was tested, and the IC50 (Human recombinant PARP2; [1]) was 0.3 nM.

CCC(=C(c1ccc(O)cc1)c1ccc(OCCN2CCN(C(=O)c3cc(Cc4n[nH]c(=O)c5ccccc45)ccc3F)CC2)cc1)c1ccccc1 [Compound 2.14, 4-(4-fluoro-3-(4-(2-(4-(1-(4-hydroxyphenyl)-2-phenylbut-1-enyl)phenoxy)ethyl)piperazine-1-carbonyl)benzyl)pthalazin-1(2H)-one] was tested, and the IC50 (Human recombinant PARP2; [1]) was 12.4 nM.
